Reference: patent US6537998B1, “Gonadotropin-releasing hormone receptor antagonists and methods relating thereto” (Neurocrine Biosciences, Inc., priority 1999, dated 2003)

Target: T1, GnRH receptor (Homo sapiens, UniProt P30968)
T1 construct: expressed in transfected cells
T1 sequence (P30968 1-328): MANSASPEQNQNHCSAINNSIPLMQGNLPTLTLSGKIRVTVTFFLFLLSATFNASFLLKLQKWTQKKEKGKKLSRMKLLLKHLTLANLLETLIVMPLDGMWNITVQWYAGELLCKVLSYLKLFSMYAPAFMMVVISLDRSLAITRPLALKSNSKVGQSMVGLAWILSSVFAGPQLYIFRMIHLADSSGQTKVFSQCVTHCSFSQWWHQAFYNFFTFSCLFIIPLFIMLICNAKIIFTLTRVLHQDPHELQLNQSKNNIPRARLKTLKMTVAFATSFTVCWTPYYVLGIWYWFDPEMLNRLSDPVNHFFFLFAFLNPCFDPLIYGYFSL
Experiment: GnRH Receptor Membrane Binding Assay
Settings: calculated from IC50 for displacement of radiolabeled ligand ([125I]-labeled GnRH peptide) from the GnRH receptor, Cheng-Prusoff
Description: Activity of GnRH receptor antagonists are typically calculated from the IC50 as the concentration of a compound necessary to displace 50% of the radiolabeled ligand from the GnRH receptor, and is reported as a “Ki” value calculated by the following equation: [formula]
where L=radioligand and KD=affinity of radioligand for receptor (Cheng and Prusoff, Biochem. Pharmacol. 22:3099, 1973). GnRH receptor antagonists of this invention have a Ki of 100 μM or less. In a preferred embodiment of this invention, the GnRH receptor antagonists have a Ki of less than 10 μM, and more preferably less than 1 μM. More preferred compounds include: 1-1, 1-2-5, 12, 13-15, 19, 21, 27, 31, 32, 34, 37, 55, 58, 64, 73, 2B, 2D, 3A, 3B, 3D, 4A, 4B, 4C, 4D, 4G, 4H, 5A and 5B (see Examples below).
Radio-iodination of GnRH Peptide
The GnRH analog is labeled by the chloramine-T method. To 10 μg of peptide in 20 μl of 0.5M sodium phosphate buffer, pH 7.6, is added 1 mCi of Na125I, followed by 22.5 μg chloramine-T and the mixture vortexed for 20 sec. The reaction is stopped by the addition of 60 μg sodium metabisulfite and the free iodine is removed by passing the iodinated mixture through a C-8 Sep-Pak cartridge (Millipore Corp., Milford, Mass.). The peptide is eluted with a small volume of 80% acetonitrile/water. The recovered labeled peptide is further purified by reverse phase HPLC on a Vydac C-18 analytical column (The Separations Group, Hesperia, Calif.) on a Beckman 334 gradient HPLC system using a gradient of acetonitrile in 0.1% TFA. The purified radioactive peptide is stored in 0.1% BSA/20% acetonitrile/0.1% TFA at […] and can be used for up to 4 weeks.
GnRH Receptor Membrane Binding Assay
Cells stably, or transiently, transfected with GnRH receptor expression vectors are harvested, resuspended in 5% sucrose and homogenized using a polytron homogenizer (2×15 sec). Nuclei are removed by centrifugation (3000×g for 5 min.), and the supernatant centrifuged (20,000×g for 30 min, 4° C.) to collect the membrane fraction. The final membrane preparation is resuspended in binding buffer (10 mM Hepes (pH 7.5), 150 mM NaCl, and 0.1% BSA) and stored at −70° C. Binding reactions are performed in a Millipore MultiScreen 96-well filtration plate assembly with polyethylenimine coated GF/C membranes. The reaction is initiated by adding membranes (40 ug protein in 130 ul binding buffer) to 50 ul of [^125I]-labeled GnRH peptide (˜100,000 cpm), and 20 ul of competitor at varying concentrations. The reaction is terminated after 90 minutes by application of vacuum and washing (2×) with phosphate buffered saline. Bound radioactivity is measured using 96-well scintillation counting (Packard Topcount) or by removing the filters from the plate and direct gamma counting. Ki values are calculated from competition binding data using non-linear least squares regression using the Prism software package (GraphPad Software).

SMILES | Ki
COc1cccc(-c2c(C)n(Cc3ccccc3F)c3nc(C(C)(C)C)c(CN(C)CCc4ccccn4)n3c2=O)c1 [Example 1-1, 2-(tert-butyl)-3-[N-methyl-N-(2-pyridylethyl)aminomethyl]-5-(3-methoxyphenyl)-6-methyl-7-(2-fluorobenzyl)immidazolo[1,2-a]pyrimid-4-one] | < 1000 nM
COC(=O)C(C)(C)c1nc2n(Cc3ccccc3F)c(C)c(-c3cccc(OC)c3)c(=O)n2c1CN(C)Cc1ccco1 [Example 4D] | < 1000 nM
COc1cccc(-c2c(C)n(Cc3ccccc3F)c3nc(C4(C)CCOC4=O)c(CN(C)Cc4ccco4)n3c2=O)c1 (stereo not shown) [Example 1-27] | < 1000 nM
COC(=O)C(C)(C)c1nc2n(Cc3ccccc3F)c(C)c(-c3cccc(OC)c3)c(=O)n2c1CN(C)Cc1ccccc1 [Example 4A, 2-(1-methoxycarbonyl-1-methylethyl)-3-(N-methyl-N-benzylaminomethyl)-5-(3-methoxyphenyl)-6-methyl-7-(2-flurorbenzyl)imidazolo[1,2-a]pyrimid-4-one] | < 1000 nM
CCN(CC)CCN(C)Cc1c(C(C)(C)C)nc2n(Cc3ccccc3F)c(C)c(-c3ccc4c(c3)OCO4)c(=O)n12 [Example 1-73] | < 1000 nM
Cc1c(-c2ccccc2)c(=O)n2c(CN(C)Cc3ccco3)c(C(C)(C)C)nc2n1Cc1ccccc1F [Example 1-19] | < 1000 nM
CC(=O)c1cccc(-c2c(C)n(Cc3ccccc3F)c3nc(C(C)(C)C)c(CN(C)CCc4ccccn4)n3c2=O)c1 [Example 1-32] | < 1000 nM
CCOC(=O)Cc1nc2n(Cc3ccccc3F)c(C)c(-c3cccc(OC)c3)c(=O)n2c1CN(C)CCc1ccccn1 [Example 5A, 2-Ethoxycarbonylmethyl-3-{N-methyl-N-[2-(2-pyridyl)ethyl]aminomethyl}-5-(3-methoxyphenyl)-6-methyl-7-(2-fluorobenzyl)imidazolo[1,2-a]pyrimid-4-one] | < 1000 nM
CC(=O)c1cccc(-c2c(C)n(Cc3ccccc3F)c3nc(C(C)(C)C)c(CN(C)Cc4ccccc4)n3c2=O)c1 [Example 1-31] | < 1000 nM
Cc1c(-c2ccccc2F)c(=O)n2c(CN(C)CCc3ccccn3)c(C(C)(C)C)nc2n1Cc1ccccc1F [Example 1-55] | < 1000 nM
COc1cccc(-c2c(C)n(Cc3ccccc3F)c3nc(C4(C)CCOC4=O)c(CN(C)Cc4ccccc4)n3c2=O)c1 (stereo not shown) [Example 1-21] | < 1000 nM
COC(=O)C(C)(C)c1nc2n(Cc3ccccc3F)c(C)c(-c3cccc(OC)c3)c(=O)n2c1CNCc1ccccn1 [Example 4G] | < 1000 nM
CCOC(=O)Cc1nc2n(Cc3ccccc3F)c(C)c(-c3cccc(OC)c3)c(=O)n2c1CN(C)Cc1ccccc1 [Example 5B, 2-ethoxycarbonylmethyl-3-{N-methyl-N-benzyl)-5-(3-methoxyphenyl)-6-methyl-7-(2-fluorobenzyl)imidazolo[1,2-a]pyrimid-4-one] | < 1000 nM
COC(=O)C(C)(C)c1nc2n(Cc3ccccc3F)c(C)c(-c3cccc(OC)c3F)c(=O)n2c1CN(C)CCc1ccccn1 [Example 4H] | < 1000 nM
COc1cccc(-c2c(C)n(Cc3ccccc3F)c3nc(C(C)(C)C)c(CN(C)[C@H](C)c4ccccc4)n3c2=O)c1 [Example 1-37] | < 1000 nM
COc1cccc(-c2c(C)n(Cc3ccccc3F)c3nc(C(C)(C)C)c(CN(C)Cc4ccccn4)n3c2=O)c1 [Example 1-12] | < 1000 nM
